Results published in the NIST ThermoML archive (doi:10.1016/j.jct.2011.10.001).

Assay: molar heat capacity at constant pressure
Conditions: 101.33 kPa, Vacuum adiabatic calorimetry

CCCC(=O)OC [methyl butanoate]
molar heat capacity at constant pressure [J/K/mol]
Conditions | Crystal | Liquid
130 K | 99.17 | –
131.79 K | 100.55 | –
133.79 K | 101.43 | –
135.8 K | 102.27 | –
137.8 K | 103.03 | –
139.79 K | 103.9 | –
140 K | 103.65 | –
141.79 K | 104.89 | –
143.79 K | 105.51 | –
145.78 K | 106.36 | –
147.78 K | 107.25 | –
149.77 K | 107.92 | –
150 K | 108.14 | –
151.89 K | 109.06 | –
153.86 K | 109.91 | –
155.85 K | 110.69 | –
157.83 K | 111.73 | –
159.81 K | 112.47 | –
160 K | 112.62 | –
161.79 K | 113.29 | –
163.77 K | 114.29 | –
165.74 K | 115.26 | –
167.72 K | 116.18 | –
169.56 K | 116.65 | –
170 K | 117.11 | –
171.52 K | 117.81 | –
173.49 K | 119.09 | –
175.45 K | 120.75 | –
177.41 K | 122.58 | –
179.36 K | 125.17 | –
180 K | 121.59 | –
181.29 K | 129.69 | –
183.2 K | 139.88 | –
185.04 K | 158.37 | –
186.78 K | 216.75 | –
188.21 K | 448.34 | –
189.16 K | 1561.8 | –
189.7 K | 8659.7 | –
190 K | 126.08 | –
190.09 K | 126.12 | 184.56
191.08 K | 185.22 | –
192.79 K | – | 184.74
194.49 K | – | 184.98
196.18 K | – | 185.21
197.88 K | – | 185.04
199.57 K | – | 185.15
200 K | – | 185.19
201.25 K | – | 185.01
202.85 K | – | 185.47
202.93 K | – | 185.15
204.61 K | – | 185.47
204.73 K | – | 185.64
206.27 K | – | 185.39
206.69 K | – | 185.68
207.94 K | – | 185.44
208.64 K | – | 186
210 K | – | 185.83
210.58 K | – | 186.03
212.53 K | – | 186
214.48 K | – | 186.17
216.42 K | – | 186.44
218.37 K | – | 186.11
220 K | – | 186.51
220.31 K | – | 186.33
222.24 K | – | 186.86
224.17 K | – | 186.8
226.1 K | – | 186.88
228.02 K | – | 187.23
229.93 K | – | 187.61
230 K | – | 187.52
231.85 K | – | 187.86
233.68 K | – | 187.83
235.58 K | – | 188.04
237.48 K | – | 188.4
239.37 K | – | 188.78
240 K | – | 188.78
241.26 K | – | 188.74
243.14 K | – | 189.23
245.01 K | – | 189.8
246.89 K | – | 190.04
248.76 K | – | 190.11
250 K | – | 190.21
250.62 K | – | 190.43
252.49 K | – | 190.56
254.35 K | – | 190.93
256.2 K | – | 190.97
258.06 K | – | 191.41
259.91 K | – | 191.46
260 K | – | 191.68
261.76 K | – | 191.67
263.49 K | – | 192.11
265.34 K | – | 192.17
267.17 K | – | 192.77
269.01 K | – | 193.06
270 K | – | 193.16
270.85 K | – | 193.64
272.68 K | – | 194.01
274.5 K | – | 193.7
276.33 K | – | 194.03
278.16 K | – | 194.27
279.98 K | – | 194.58
280 K | – | 194.68
281.79 K | – | 195.04
283.59 K | – | 195.25
285.4 K | – | 195.54
287.19 K | – | 195.76
288.98 K | – | 196.51
290 K | – | 196.51
290.74 K | – | 196.84
292.33 K | – | 196.73
294.09 K | – | 197.27
295.83 K | – | 197.8
297.59 K | – | 198
298.15 K | – | 198.08
299.34 K | – | 198.43
300 K | – | 198.44
301.06 K | – | 198.72
302.76 K | – | 198.98
304.45 K | – | 199.24
306.14 K | – | 199.38
307.81 K | – | 199.85
309.48 K | – | 200.31
310 K | – | 200.39
311.13 K | – | 200.58
312.78 K | – | 200.66
314.42 K | – | 201.21
316.05 K | – | 201.68
317.67 K | – | 201.91
318.97 K | – | 202.28
320 K | – | 202.43
320.57 K | – | 202.72
322.17 K | – | 203.14
323.75 K | – | 203.27
325.32 K | – | 203.68
326.89 K | – | 204.18
328.44 K | – | 204.41
329.98 K | – | 204.65
330 K | – | 204.68
331.51 K | – | 204.84
333.03 K | – | 205.34
334.54 K | – | 205.78
336.04 K | – | 206.3
337.49 K | – | 206.62
338.96 K | – | 206.61
340 K | – | 207.21
340.42 K | – | 207.11
341.87 K | – | 207.49
342.87 K | – | 207.85
344.3 K | – | 208.38
345.71 K | – | 208.82
347.12 K | – | 209.31
348.51 K | – | 209.73
349.89 K | – | 209.95
350 K | – | 210.03
351.26 K | – | 210.42
352.61 K | – | 210.86
353.95 K | – | 211.39
355.28 K | – | 211.75
356.6 K | – | 211.91
357.9 K | – | 212.69
359.2 K | – | 212.83
360 K | – | 213
360.47 K | – | 213.07
361.74 K | – | 213.3
362.99 K | – | 214.05
363.57 K | – | 213.92
364.8 K | – | 214.49
366.02 K | – | 214.53
367.22 K | – | 214.65
368.41 K | – | 215.35
369.58 K | – | 215.99
370 K | – | 215.8
370.75 K | – | 216.01
371.9 K | – | 216.31
